# Key:
# [1] = test system: mouse model with obesity caused by a high fat diet; assay: Change in body weight by autonomically drinking in mouse model with obesity caused by high fat diet; type: in vivo; conditions: for degree of body weight decrease as compared with HPBCD: autonomically drinking
# Experimental: Male C57BL/6J mice (Five age of the week, KRIBB, Korea) were accommodated for 1 week, and then were induced with obesity by giving a high fat diet (60% fat kcal, Research Diets) for 15 days. The weights of the animals that were induced with obesity were equally divided into 3 animals as one group. And then, the solvent-control group drank sterilized distilled water, autonomically. Hydroxypropyl-β-cyclodextrin (HPBCD) was dissolved in sterilized distilled water to be 10, 15, and 20% (W/V) concentrations for drinking autonomically. A change in body weight was daily measured to all of animals during the test; the fixed amount of feeds was provided at the day of measuring body weight, and then an amount of intake per a group (g/day) was calculated by measuring a residual amount of feeds at the next day. A change in body weight was measured during the test using α-cyclodextrin (α-CD) instead of 2-hydroxypropyl-β-cyclodextrin (HPBCD) in the same method as the above <Example 1>.
# [2] = test system: high fat diet-mouse; assay: Change in body weight by oral administration in high fat diet-mouse; type: in vivo; conditions: for degree of body weight decrease as compared with HPBCD: method of Example 3 (oral)
# Experimental: Male C57BL/6J mice (Five age of the week, KRIBB, Korea) were accommodated for 1 week. And then, the weights of the animals were equally divided into 5 animals as one group. While a high fat diet (60% fat kcal) was provided, sterilized distilled water and HPBCDs with 10, 20, and 40% (W/V) were orally administered at three times (Morning, Afternoon, Evening) a day for 5 days in 0.2 ml per 20 g body weight of a mouse at the same time. A change in body weight was measured to all of the animals during the test at one time per day; the fixed amount of feeds was provided at the day of measuring body weight, and then an average amount of intake per an animal (g/mouse/day) was calculated by measuring a residual amount of feeds at the next day.
# A body weight was measured by using the same conditions as the above <Example 3>, except that BCDs with 10 and 20% (W/V) concentrations were used instead of HPBCDs with 10, 20, and 40% (W/V) concentrations.
# A change in body weight was measured during the test using α-CD instead of HPBCD in the same method as the above <Example 3>.
# [3] = test system: mouse model with obesity caused by a high fat diet; assay: Change in body weight by autonomically drinking in mouse model with obesity caused by high fat diet; type: in vivo
# [4] = test system: high fat diet-mouse; assay: Change in body weight by oral administration in high fat diet-mouse; type: in vivo; conditions: Table 19, β-CD 15% (w/v) oral
# [5] = test system: mouse; conditions: cited from earlier work
# [6] = test system: human; conditions: cited from earlier work
smiles,measurement,setting,value
"OC[C@H]1O[C@@H]2O[C@H]3[C@H](O)[C@@H](O)[C@@H](O[C@H]4[C@H](O)[C@@H](O)[C@@H](O[C@H]5[C@H](O)[C@@H](O)[C@@H](O[C@H]6[C@H](O)[C@@H](O)[C@@H](O[C@H]7[C@H](O)[C@@H](O)[C@@H](O[C@H]8[C@H](O)[C@@H](O)[C@@H](O[C@H]1[C@H](O)[C@H]2O)O[C@@H]8CO)O[C@@H]7CO)O[C@@H]6CO)O[C@@H]5CO)O[C@@H]4CO)O[C@@H]3CO [BCD, β-cyclodextrin]",degree of body weight decrease as compared with HPBCD,[1],low
same,increase in body weight as compared with the distilled water oral-administering group,[2]; 10 and 20% (W/V) oral,suppressed
same,body weight as compared with the initial body weight,"[2]; 10 and 20% (W/V) oral, Example 5",not decreased
same,Body weight as percent of initial body weight,"[2]; Table 15, BCD 10% (w/v) oral, 0 Day",100.0 ± 0.0%
same,Body weight as percent of initial body weight,"[2]; Table 15, BCD 10% (w/v) oral, 1 Day",101.5 ± 2.1%
same,Body weight as percent of initial body weight,"[2]; Table 15, BCD 10% (w/v) oral, 2 Day",100.7 ± 1.9 %
same,Body weight as percent of initial body weight,"[2]; Table 15, BCD 10% (w/v) oral, 3 Day",102.0 ± 2.5 %
same,Body weight as percent of initial body weight,"[2]; Table 15, BCD 10% (w/v) oral, 4 Day",102.4 ± 4.0 %
same,Body weight as percent of initial body weight,"[2]; Table 15, BCD 10% (w/v) oral, 5 Day",103.4 ± 4.1 %
same,Body weight as percent of initial body weight,"[2]; Table 15, BCD 20% (w/v) oral, 0 Day",100.0 ± 0.0%
same,Change in body weight (%),"[2]; Table 15, BCD 20% (w/v) oral, 1 Day",100.3 ± 2.7 %
same,Body weight as percent of initial body weight,"[2]; Table 15, BCD 20% (w/v) oral, 2 Day",102.1 ± 2.1 %
same,Body weight as percent of initial body weight,"[2]; Table 15, BCD 20% (w/v) oral, 3 Day",103.1 ± 2.1 %
same,Body weight as percent of initial body weight,"[2]; Table 15, BCD 20% (w/v) oral, 4 Day",103.7 ± 3.0 %
same,Body weight as percent of initial body weight,"[2]; Table 15, BCD 20% (w/v) oral, 5 Day",103.2 ± 2.6 %
same,Body weight as percent of initial body weight,"[2]; Table 19, β-CD 10% (w/v) oral, 0 Day",100.0 ± 0.0%
same,Body weight as percent of initial body weight,"[2]; Table 19, β-CD 10% (w/v) oral, 1 Day",100.5 ± 0.8%
same,Body weight as percent of initial body weight,"[2]; Table 19, β-CD 10% (w/v) oral, 2 Day",100.1 ± 1.3%
same,Body weight as percent of initial body weight,"[2]; Table 19, β-CD 10% (w/v) oral, 3 Day",99.8 ± 1.2%
same,Body weight as percent of initial body weight,"[2]; Table 19, β-CD 15% (w/v) oral, 2 Day",99.0 ± 1.4%
same,Body weight as percent of initial body weight,"[2]; Table 19, β-CD 15% (w/v) oral, 3 Day",98.5 ± 1.0%
same,Body weight as percent of initial body weight,"[2]; Table 19, β-CD 20% (w/v) oral, 0 Day",100.0 ± 0.0%
same,Body weight as percent of initial body weight,"[2]; Table 19, β-CD 20% (w/v) oral, 1 Day",99.5 ± 1.1%
same,Body weight as percent of initial body weight,"[2]; Table 19, β-CD 20% (w/v) oral, 2 Day",98.6 ± 0.8%
same,Body weight as percent of initial body weight,"[2]; Table 19, β-CD 20% (w/v) oral, 3 Day",97.8 ± 1.3%
same,degree of body weight decrease as compared with HPBCD,[2],low
same,difference of effect between 10 and 20% (W/V),[2]; oral,no significant difference
same,Change in body weight (%),"[3]; Table 18, β-CD 10% (w/v) autonomically drinking, 0 Day",100.0 ± 0.0%
same,Change in body weight (%),"[3]; Table 18, β-CD 10% (w/v) autonomically drinking, 1 Day",99.8 ± 0.8%
same,Change in body weight (%),"[3]; Table 18, β-CD 10% (w/v) autonomically drinking, 2 Day",98.5 ± 1.3%
same,Change in body weight (%),"[3]; Table 18, β-CD 10% (w/v) autonomically drinking, 3 Day",98.2 ± 1.2%
same,Change in body weight (%),"[3]; Table 18, β-CD 20% (w/v) autonomically drinking, 0 Day",100.0 ± 0.0%
same,Change in body weight (%),"[3]; Table 18, β-CD 20% (w/v) autonomically drinking, 1 Day",99.1 ± 1.2%
same,Change in body weight (%),"[3]; Table 18, β-CD 20% (w/v) autonomically drinking, 2 Day",98.6 ± 1.2%
same,Change in body weight (%),"[3]; Table 18, β-CD 20% (w/v) autonomically drinking, 3 Day",97.5 ± 1.0%
same,Change in body weight (%),"[3]; Table 18, β-CD 40% (w/v) autonomically drinking, 0 Day",100.0 ± 0.0%
same,Change in body weight (%),"[3]; Table 18, β-CD 40% (w/v) autonomically drinking, 1 Day",98.8 ± 1.1%
same,Change in body weight (%),"[3]; Table 18, β-CD 40% (w/v) autonomically drinking, 2 Day",97.0 ± 0.8%
same,Change in body weight (%),"[3]; Table 18, β-CD 40% (w/v) autonomically drinking, 3 Day",96.4 ± 1.3%
same,Body weight as percent of initial body weight,[4]; 0 Day,100.0 ± 0.0%
same,Body weight as percent of initial body weight,[4]; 1 Day,99.6 ± 1.2%
same,antiobesity effect,[5],suppress a weight increase
same,antiobesity effect,[6],reduce weight
"OC[C@H]1O[C@@H]2O[C@H]3[C@H](O)[C@@H](O)[C@@H](O[C@H]4[C@H](O)[C@@H](O)[C@@H](O[C@H]5[C@H](O)[C@@H](O)[C@@H](O[C@H]6[C@H](O)[C@@H](O)[C@@H](O[C@H]7[C@H](O)[C@@H](O)[C@@H](O[C@H]1[C@H](O)[C@H]2O)O[C@@H]7CO)O[C@@H]6CO)O[C@@H]5CO)O[C@@H]4CO)O[C@@H]3CO [α-CD, α-cyclodextrin]",Change in body weight (%),"[1]; Table 16, α-CD 10% (w/v) autonomically drinking, 2 Day",100.6 ± 0.4%
same,Change in body weight (%),"[1]; Table 16, α-CD 15% (w/v) autonomically drinking, 1 Day",99.8 ± 0.4%
same,Change in body weight (%),"[1]; Table 16, α-CD 15% (w/v) autonomically drinking, 2 Day",99.3 ± 0.8%
same,Change in body weight (%),"[1]; Table 16, α-CD 20% (w/v) autonomically drinking, 1 Day",99.8 ± 0.8%
same,Change in body weight (%),"[1]; Table 16, α-CD 20% (w/v) autonomically drinking, 2 Day",99.0 ± 1.4%
same,degree of body weight decrease as compared with HPBCD,[1],low
same,Body weight as percent of initial body weight,"[2]; Table 17, α-CD 10% (w/v) oral, 0 Day",100.0 ± 0.0%
same,Body weight as percent of initial body weight,"[2]; Table 17, α-CD 10% (w/v) oral, 1 Day",101.3 ± 0.4%
same,Body weight as percent of initial body weight,"[2]; Table 17, α-CD 10% (w/v) oral, 2 Day",100.5 ± 1.6%
same,Body weight as percent of initial body weight,"[2]; Table 17, α-CD 10% (w/v) oral, 3 Day",100.2 ± 2.7%
same,Body weight as percent of initial body weight,"[2]; Table 17, α-CD 20% (w/v) oral, 0 Day",100.0 ± 0.0%
same,Body weight as percent of initial body weight,"[2]; Table 17, α-CD 20% (w/v) oral, 1 Day",99.8 ± 0.8%
same,Body weight as percent of initial body weight,"[2]; Table 17, α-CD 20% (w/v) oral, 2 Day",99.5 ± 1.2%
same,Body weight as percent of initial body weight,"[2]; Table 17, α-CD 20% (w/v) oral, 3 Day",99.2 ± 1.0%
same,Body weight as percent of initial body weight,"[2]; Table 17, α-CD 40% (w/v) oral, 0 Day",100.0 ± 0.0%
same,Body weight as percent of initial body weight,"[2]; Table 17, α-CD 40% (w/v) oral, 1 Day",99.6 ± 1.0%
same,Body weight as percent of initial body weight,"[2]; Table 17, α-CD 40% (w/v) oral, 2 Day",99.0 ± 1.2%
same,Body weight as percent of initial body weight,"[2]; Table 17, α-CD 40% (w/v) oral, 3 Day",98.2 ± 1.3%
same,degree of body weight decrease as compared with HPBCD,[2],low
same,Change in body weight (%),"[3]; Table 16, α-CD 10% (w/v) autonomically drinking, 0 Day",100.0 ± 0.0%
same,Change in body weight (%),"[3]; Table 16, α-CD 10% (w/v) autonomically drinking, 1 Day",100.2 ± 0.2%
same,Change in body weight (%),"[3]; Table 16, α-CD 10% (w/v) autonomically drinking, 3 Day",100.1 ± 1.4%
same,Change in body weight (%),"[3]; Table 16, α-CD 15% (w/v) autonomically drinking, 0 Day",100.0 ± 0.0%
same,Change in body weight (%),"[3]; Table 16, α-CD 15% (w/v) autonomically drinking, 3 Day",98.9 ± 1.1%
same,Change in body weight (%),"[3]; Table 16, α-CD 20% (w/v) autonomically drinking, 0 Day",100.0 ± 0.0%
same,Change in body weight (%),"[3]; Table 16, α-CD 20% (w/v) autonomically drinking, 3 Day",98.5 ± 1.3%
